Data taken from the supplement of paper PMC10307832.

Key:
Test in all cases: relative viability (nuclei count vs DMSO), 5 days (fraction); higher = more cells survive
BEN = system: BEN
Outline: (§1)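 Relative viability equals treated-well nuclei counts divided by vehicle-well nuclei counts. Counts came from 4× images of lung cancer cell lines grown in 1536-well plates for 5 days after pin-tool dosing on the day after seeding. Dosing used one drug alone or a fixed anchor-drug dose plus five library-drug doses (not always all listed) in √10 steps, and values are medians of duplicate plates.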

CAL-12T = system: CAL-12T
Outline: as §1

EKVX = system: EKVX
Outline: as §1

HCC-15 = system: HCC-15
Outline: as §1

HCC-366 = system: HCC-366
Outline: as §1

HCC-44 = system: HCC-44
Outline: as §1

LCLC-103H = system: LCLC-103H
Outline: as §1

LOU-NH91 = system: LOU-NH91
Outline: as §1

NCI-H1355 = system: NCI-H1355
Outline: as §1

NCI-H1395 = system: NCI-H1395
Outline: as §1

NCI-H1437 = system: NCI-H1437
Outline: as §1

NCI-H1563 = system: NCI-H1563
Outline: as §1

NCI-H1650 = system: NCI-H1650
Outline: as §1

NCI-H1651 = system: NCI-H1651
Outline: as §1

NCI-H1734 = system: NCI-H1734
Outline: as §1

NCI-H1755 = system: NCI-H1755
Outline: as §1

NCI-H1975 = system: NCI-H1975
Outline: as §1

NCI-H2023 = system: NCI-H2023
Outline: as §1

NCI-H2085 = system: NCI-H2085
Outline: as §1

NCI-H358 = system: NCI-H358
Outline: as §1

NCI-H441 = system: NCI-H441
Outline: as §1

NCI-H460 = system: NCI-H460
Outline: as §1

NCI-H838 = system: NCI-H838
Outline: as §1

## COc1cc(N2CCC(C(N)=O)CC2)ccc1Nc1nc(N)c(Cl)c(Nc2ccccc2S(=O)(=O)C(C)C)n1 [HG-5-88-01] + CS(=O)(=O)N1CCN(Cc2cc3nc(-c4cccc5[nH]ncc45)nc(N4CCOCC4)c3s2)CC1 [Pictilisib] (partner 1 µM)
BEN; first compound 0.04 µM
  relative viability: 0.504
BEN; first compound 0.1265 µM
  relative viability: 0.523
BEN; first compound 0.4 µM
  relative viability: 0.544
BEN; first compound 1.265 µM
  relative viability: 0.468
BEN; first compound 4 µM
  relative viability: 0.447
CAL-12T; first compound 0.04 µM
  relative viability: 0.321
CAL-12T; first compound 0.1265 µM
  relative viability: 0.354
CAL-12T; first compound 0.4 µM
  relative viability: 0.418
CAL-12T; first compound 1.265 µM
  relative viability: 0.296
CAL-12T; first compound 4 µM
  relative viability: 0.227
EKVX; first compound 0.04 µM
  relative viability: 0.444
EKVX; first compound 0.1265 µM
  relative viability: 0.426
EKVX; first compound 0.4 µM
  relative viability: 0.372
EKVX; first compound 4 µM
  relative viability: 0.355
HCC-15; first compound 0.04 µM
  relative viability: 0.844
HCC-15; first compound 0.1265 µM
  relative viability: 0.831
HCC-15; first compound 0.4 µM
  relative viability: 0.741
HCC-15; first compound 1.265 µM
  relative viability: 0.798
HCC-15; first compound 4 µM
  relative viability: 0.515
HCC-366; first compound 0.04 µM
  relative viability: 0.101
HCC-366; first compound 0.1265 µM
  relative viability: 0.16
HCC-366; first compound 0.4 µM
  relative viability: 0.0782
HCC-366; first compound 1.265 µM
  relative viability: 0.157
HCC-366; first compound 4 µM
  relative viability: 0.212
HCC-44; first compound 0.04 µM
  relative viability: 0.695
HCC-44; first compound 0.1265 µM
  relative viability: 0.569
HCC-44; first compound 0.4 µM
  relative viability: 0.542
HCC-44; first compound 1.265 µM
  relative viability: 0.519
HCC-44; first compound 4 µM
  relative viability: 0.375
LCLC-103H; first compound 0.04 µM
  relative viability: 0.643
LCLC-103H; first compound 0.1265 µM
  relative viability: 0.555
LCLC-103H; first compound 0.4 µM
  relative viability: 0.484
LCLC-103H; first compound 1.265 µM
  relative viability: 0.608
LCLC-103H; first compound 4 µM
  relative viability: 0.426
LOU-NH91; first compound 0.04 µM
  relative viability: 0.495
LOU-NH91; first compound 0.1265 µM
  relative viability: 0.514
LOU-NH91; first compound 0.4 µM
  relative viability: 0.513
LOU-NH91; first compound 1.265 µM
  relative viability: 0.482
LOU-NH91; first compound 4 µM
  relative viability: 0.401
NCI-H1355; first compound 0.04 µM
  relative viability: 0.253
NCI-H1355; first compound 0.1265 µM
  relative viability: 0.462
NCI-H1355; first compound 0.4 µM
  relative viability: 0.412
NCI-H1355; first compound 1.265 µM
  relative viability: 0.414
NCI-H1355; first compound 4 µM
  relative viability: 0.299
NCI-H1395; first compound 0.04 µM
  relative viability: 0.582
NCI-H1395; first compound 0.1265 µM
  relative viability: 0.587
NCI-H1395; first compound 0.4 µM
  relative viability: 0.598
NCI-H1395; first compound 1.265 µM
  relative viability: 0.584
NCI-H1395; first compound 4 µM
  relative viability: 0.523
NCI-H1437; first compound 0.04 µM
  relative viability: 0.519
NCI-H1437; first compound 0.1265 µM
  relative viability: 0.431
NCI-H1437; first compound 0.4 µM
  relative viability: 0.436
NCI-H1437; first compound 1.265 µM
  relative viability: 0.416
NCI-H1437; first compound 4 µM
  relative viability: 0.264
NCI-H1563; first compound 0.04 µM
  relative viability: 0.66
NCI-H1563; first compound 0.1265 µM
  relative viability: 0.671
NCI-H1563; first compound 0.4 µM
  relative viability: 0.638
NCI-H1563; first compound 1.265 µM
  relative viability: 0.651
NCI-H1563; first compound 4 µM
  relative viability: 0.634
NCI-H1650; first compound 0.04 µM
  relative viability: 0.583
NCI-H1650; first compound 0.1265 µM
  relative viability: 0.551
NCI-H1650; first compound 0.4 µM
  relative viability: 0.565
NCI-H1650; first compound 1.265 µM
  relative viability: 0.519
NCI-H1650; first compound 4 µM
  relative viability: 0.355
NCI-H1651; first compound 0.04 µM
  relative viability: 0.51
NCI-H1651; first compound 0.1265 µM
  relative viability: 0.609
NCI-H1651; first compound 0.4 µM
  relative viability: 0.559
NCI-H1651; first compound 1.265 µM
  relative viability: 0.646
NCI-H1651; first compound 4 µM
  relative viability: 0.646
NCI-H1734; first compound 0.04 µM
  relative viability: 0.405
NCI-H1734; first compound 0.1265 µM
  relative viability: 0.423
NCI-H1734; first compound 0.4 µM
  relative viability: 0.411
NCI-H1734; first compound 1.265 µM
  relative viability: 0.358
NCI-H1734; first compound 4 µM
  relative viability: 0.476
NCI-H1755; first compound 0.1265 µM
  relative viability: 0.508
NCI-H1755; first compound 0.4 µM
  relative viability: 0.438
NCI-H1755; first compound 1.265 µM
  relative viability: 0.53
NCI-H1755; first compound 4 µM
  relative viability: 0.399
NCI-H1975; first compound 0.04 µM
  relative viability: 0.32
NCI-H1975; first compound 0.1265 µM
  relative viability: 0.277
NCI-H1975; first compound 0.4 µM
  relative viability: 0.244
NCI-H1975; first compound 1.265 µM
  relative viability: 0.191
NCI-H1975; first compound 4 µM
  relative viability: 0.17
NCI-H2023; first compound 0.04 µM
  relative viability: 0.222
NCI-H2023; first compound 0.1265 µM
  relative viability: 0.245
NCI-H2023; first compound 0.4 µM
  relative viability: 0.16
NCI-H2023; first compound 1.265 µM
  relative viability: 0.159
NCI-H2023; first compound 4 µM
  relative viability: 0.171
NCI-H2085; first compound 0.04 µM
  relative viability: 0.478
NCI-H2085; first compound 0.1265 µM
  relative viability: 0.457
NCI-H2085; first compound 0.4 µM
  relative viability: 0.525
NCI-H2085; first compound 1.265 µM
  relative viability: 0.414
NCI-H2085; first compound 4 µM
  relative viability: 0.442
NCI-H358; first compound 0.04 µM
  relative viability: 0.292
NCI-H358; first compound 0.1265 µM
  relative viability: 0.384
NCI-H358; first compound 0.4 µM
  relative viability: 0.302
NCI-H358; first compound 1.265 µM
  relative viability: 0.225
NCI-H358; first compound 4 µM
  relative viability: 0.301
NCI-H441; first compound 0.04 µM
  relative viability: 0.435
NCI-H441; first compound 0.1265 µM
  relative viability: 0.409
NCI-H441; first compound 0.4 µM
  relative viability: 0.494
NCI-H441; first compound 1.265 µM
  relative viability: 0.352
NCI-H441; first compound 4 µM
  relative viability: 0.536
NCI-H460; first compound 0.04 µM
  relative viability: 0.379
NCI-H460; first compound 0.1265 µM
  relative viability: 0.296
NCI-H460; first compound 0.4 µM
  relative viability: 0.395
NCI-H460; first compound 1.265 µM
  relative viability: 0.332
NCI-H460; first compound 4 µM
  relative viability: 0.277
NCI-H838; first compound 0.04 µM
  relative viability: 0.312
NCI-H838; first compound 0.1265 µM
  relative viability: 0.503
NCI-H838; first compound 0.4 µM
  relative viability: 0.337
NCI-H838; first compound 1.265 µM
  relative viability: 0.393
NCI-H838; first compound 4 µM
  relative viability: 0.383
